Test [1] has as its system cerebral infarction model rat. As to the kind of experiment: Efficacy in cerebral infarction model rat (right MCA occlusion). Particulars: 2 mg/kg tail vein at 105 minutes and 24 hours after right MCA occlusion; 48 hours after occlusion; p<0.01 vs control 34.1±1.1%. Format: in vivo, Crl:CD (SD) rats. From the text: Crl:CD (SD) rats (7 weeks old, male) were obtained from Charles River Laboratories, Japan, and after 6 days of acclimation, they were divided into the control group (n=8) and the peptide-administered group (n=8). On the following day of grouping, the rats were fixed in the supine position under 2% isoflurane inhalation anesthesia (anesthesia background: laughing gas:oxygen=7:3). To regulate body temperature during surgery, a thermometer probe connected to a digital thermometer was inserted into the rectum, and changes in the rectal temperature before and after surgery were monitored. […]
Forty-eight hours after the right MCA occlusion, the animals were decapitated under anesthesia with sodium pentobarbital (50 mg/kg, intraperitoneal administration), and the entire brain was excised to prepare brain sections with a thickness of 2 mm. […] The resulting photographs were subjected to image analysis to obtain actual measurements of the cerebral infarction area and cross-sectional area of the brain, and the cerebral infarct volume and the total brain volume from 4 mm anterior to bregma to 6 mm posterior to bregma were calculated using the calculation formula below. In addition, the cerebral infarction volume ratio was calculated from the cerebral infarction volume and the total volume of the brain (cerebral infarction volume ratio (%)=cerebral infarction volume/total brain volume×100).

Test [2] deals with inflammatory bowel disease (IBD) model mice. In words: Efficacy in DSS-induced inflammatory bowel disease (IBD) model mice. Format: in vivo, BALB/c mice. As for the experimental part:
Dextran sodium sulfate (DSS) (molecular weight 36,000 to 50,000, manufactured by MP Biomedicals, Product No. 160110) was dissolved in purified water to prepare a 2.5% (w/v) DSS aqueous solution. In addition, the peptide 1r10 (TFA salt) described in Example 1 was used as the test substance.
BALB/c mice (9 weeks old, male) were allowed to drink the 2.5% DSS aqueous solution freely for 7 days to induce colitis. After that, the drinking was changed from DSS to tap water, and the large intestine was collected 3 days later (10 days after the start of drinking the DSS aqueous solution).
The IBD model mice prepared as described above were divided into the peptide 1r10 administration group (n=8) and the control group (n=8). Peptide administration was carried out by injecting into the tail vein, the peptide 1r10 solution adjusted to a concentration of 0.5 mg/mL using physiological saline as a solvent at an amount of 10 mL/kg on Days 1, 4, 7, 8 and 9 after the start of drinking the DSS aqueous solution (peptide dose of 5 mg/kg). The control group was injected with physiological saline solution at a dose of 10 mL/kg into the tail vein on Days 1, 4, 7, 8 and 9 after the start of drinking the DSS aqueous solution.
For 10 days from the start of drinking the DSS aqueous solution, the mice were weighed and observed for the symptoms (stool condition and bleeding) every day except Saturdays, Sundays, and holidays, and the degree of symptoms was evaluated by calculating the DAI (disease activity index) score. The DAI score was calculated by scoring the weight loss rate, stool condition, and stool bleeding as shown in the table below, and summing the scores of these three items. The scoring criteria were partly based on the method of Li et al. (PLoS One. 2015 Dec. 7; 10 (12): e0144101).
In addition, the length of the large intestine (from the colon to the rectum) collected 10 days after the start of drinking DSS was measured using a digital caliper.

[3] abbreviates: 5 mg/kg tail vein, 8 to 10 days after the start of drinking DSS, vs control group.

For the substance “peptide 1r10: artificial sequence peptide consisting of the amino acid sequence of SEQ ID NO: 1, chemically synthesized (IMWLCQYFFQCHKCAVKKKTWKEKKDRRHP)”, the “cerebral infarction volume ratio (mean±standard error)” value in test [1] is 27.2±1.2%. Also, in test [2] (5 mg/kg tail vein on Days 1, 4, 7, 8 and 9, Day 10), the “body weight 10 days after the start of drinking the DSS aqueous solution” value is reported as “tendency to recover body weight”. Also, the “changes in mouse body weight (degree of decrease)” value in test [2] (5 mg/kg tail vein on Days 1, 4, 7, 8 and 9 after start of drinking DSS, vs control group (saline)) is listed as “slower”. In addition, in test [2] (setting [3]), the “DAI (disease activity index) score” value is “lower”; the “stool score (sum of stool condition score and bleeding score)” value was “lower”. In addition, the colon length result in test [2] (5 mg/kg tail vein, ten days after the start of drinking DSS, vs control group) is given as “longer”.

These data come from patent publication US20220009976A1, “Peptide Possessing Mesenchymal-Stem-Cell Mobilizing Activity” (StemRIM Inc., priority 2018, published 2022).
